Test results published in ChEMBL document CHEMBL4507276 (2021).

Tests used:
[1] = biological target: T1, Tyrosine-protein kinase TXK (Homo sapiens) (UniProt P42681); settings: Compound concentration 1000.0 nM
T1 sequence (whole entry): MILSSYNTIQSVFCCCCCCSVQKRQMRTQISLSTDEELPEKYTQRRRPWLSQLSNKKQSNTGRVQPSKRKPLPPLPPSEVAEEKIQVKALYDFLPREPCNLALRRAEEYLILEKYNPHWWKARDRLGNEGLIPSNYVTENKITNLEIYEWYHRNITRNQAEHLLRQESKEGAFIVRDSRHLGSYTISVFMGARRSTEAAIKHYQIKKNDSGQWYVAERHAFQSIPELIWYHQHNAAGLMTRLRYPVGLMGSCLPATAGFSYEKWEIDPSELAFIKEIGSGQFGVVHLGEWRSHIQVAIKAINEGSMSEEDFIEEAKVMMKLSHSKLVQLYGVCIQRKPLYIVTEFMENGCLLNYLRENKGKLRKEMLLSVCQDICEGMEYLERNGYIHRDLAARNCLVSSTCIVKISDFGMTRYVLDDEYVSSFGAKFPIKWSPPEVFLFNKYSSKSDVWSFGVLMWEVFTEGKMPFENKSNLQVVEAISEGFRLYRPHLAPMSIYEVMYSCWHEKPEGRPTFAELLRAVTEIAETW

[2] = biological target: Protein kinase C eta type (Homo sapiens) (UniProt P24723); settings: Compound concentration 1000.0 nM
Chain of Protein kinase C eta type (Homo sapiens) (P24723 whole entry): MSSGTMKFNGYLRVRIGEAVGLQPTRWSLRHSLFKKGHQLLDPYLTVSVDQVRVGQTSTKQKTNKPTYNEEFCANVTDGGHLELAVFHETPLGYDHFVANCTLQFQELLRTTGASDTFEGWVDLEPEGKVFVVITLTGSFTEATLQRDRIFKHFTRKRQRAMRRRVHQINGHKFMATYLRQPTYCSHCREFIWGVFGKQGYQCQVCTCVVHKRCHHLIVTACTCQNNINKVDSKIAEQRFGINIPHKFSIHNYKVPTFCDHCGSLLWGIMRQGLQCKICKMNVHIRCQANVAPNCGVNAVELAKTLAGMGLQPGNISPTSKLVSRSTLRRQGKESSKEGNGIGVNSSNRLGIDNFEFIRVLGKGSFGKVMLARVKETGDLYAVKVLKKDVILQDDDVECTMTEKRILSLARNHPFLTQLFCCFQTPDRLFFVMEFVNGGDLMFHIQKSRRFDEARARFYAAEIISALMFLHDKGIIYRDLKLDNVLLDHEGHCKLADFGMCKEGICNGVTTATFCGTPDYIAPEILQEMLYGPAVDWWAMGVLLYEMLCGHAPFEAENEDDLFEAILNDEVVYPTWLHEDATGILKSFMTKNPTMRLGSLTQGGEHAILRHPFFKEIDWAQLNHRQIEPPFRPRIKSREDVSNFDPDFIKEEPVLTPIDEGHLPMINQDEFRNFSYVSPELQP

[3] = biological target: cAMP-dependent protein kinase catalytic subunit beta (Homo sapiens) (UniProt P22694); settings: Compound concentration 1000.0 nM
[4] = biological target: Dual specificity mitogen-activated protein kinase kinase 4 (Homo sapiens) (UniProt P45985); settings: Compound concentration 1000.0 nM
Chain of Dual specificity mitogen-activated protein kinase kinase 4 (Homo sapiens) (P45985 whole entry): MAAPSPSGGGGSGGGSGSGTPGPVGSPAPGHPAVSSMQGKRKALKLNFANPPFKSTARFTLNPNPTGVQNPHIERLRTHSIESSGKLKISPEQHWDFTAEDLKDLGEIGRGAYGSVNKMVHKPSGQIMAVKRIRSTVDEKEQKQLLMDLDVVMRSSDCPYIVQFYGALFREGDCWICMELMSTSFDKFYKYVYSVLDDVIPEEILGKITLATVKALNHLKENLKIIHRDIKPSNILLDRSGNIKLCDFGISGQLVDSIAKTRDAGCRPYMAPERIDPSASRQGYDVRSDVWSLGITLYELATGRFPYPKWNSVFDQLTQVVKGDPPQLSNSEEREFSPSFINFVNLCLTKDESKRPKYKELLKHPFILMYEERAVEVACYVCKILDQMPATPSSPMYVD

[5] = test system: Epidermal growth factor receptor (Homo sapiens), P00533 [L858R,T790M]; settings: Compound concentration 1000.0 nM
[6] = biological target: Phosphatidylinositol 3-kinase C2 domain-containing subunit gamma (Homo sapiens) (UniProt O75747); settings: Compound concentration 1000.0 nM
[7] = biological target: MAP kinase-interacting serine/threonine-protein kinase 1 (Homo sapiens) (UniProt Q9BUB5); settings: Compound concentration 1000.0 nM
[8] = biological target: Muscarinic acetylcholine receptor M5 (Homo sapiens) (UniProt P08912); settings: Compound concentration 10.0 uM
Chain of Muscarinic acetylcholine receptor M5 (Homo sapiens) (P08912 whole entry): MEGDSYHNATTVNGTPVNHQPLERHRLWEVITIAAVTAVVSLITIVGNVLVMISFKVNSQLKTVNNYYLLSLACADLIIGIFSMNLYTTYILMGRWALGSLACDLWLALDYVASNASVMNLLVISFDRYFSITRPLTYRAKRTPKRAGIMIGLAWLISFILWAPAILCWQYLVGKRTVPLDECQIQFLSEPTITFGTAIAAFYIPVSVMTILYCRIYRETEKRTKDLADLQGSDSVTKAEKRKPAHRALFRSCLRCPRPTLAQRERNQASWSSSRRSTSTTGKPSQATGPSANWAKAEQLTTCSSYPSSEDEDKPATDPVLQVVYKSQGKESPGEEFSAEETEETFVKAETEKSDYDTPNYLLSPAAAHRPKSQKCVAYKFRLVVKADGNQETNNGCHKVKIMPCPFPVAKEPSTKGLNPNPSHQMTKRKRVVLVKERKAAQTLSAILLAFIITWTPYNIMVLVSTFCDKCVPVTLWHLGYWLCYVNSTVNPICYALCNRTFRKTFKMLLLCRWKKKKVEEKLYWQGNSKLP

[9] = test system: Tyrosine-protein kinase ABL1 (Homo sapiens), P00519 [F317I]; settings: Compound concentration 1000.0 nM
[10] = test system: Tyrosine-protein kinase ABL1 (Homo sapiens), P00519 [Q252H]; settings: Compound concentration 1000.0 nM
[11] = biological target: Homeodomain-interacting protein kinase 1 (Homo sapiens) (UniProt Q86Z02); settings: Compound concentration 1000.0 nM
Chain of Homeodomain-interacting protein kinase 1 (Homo sapiens) (Q86Z02 whole entry, looked up): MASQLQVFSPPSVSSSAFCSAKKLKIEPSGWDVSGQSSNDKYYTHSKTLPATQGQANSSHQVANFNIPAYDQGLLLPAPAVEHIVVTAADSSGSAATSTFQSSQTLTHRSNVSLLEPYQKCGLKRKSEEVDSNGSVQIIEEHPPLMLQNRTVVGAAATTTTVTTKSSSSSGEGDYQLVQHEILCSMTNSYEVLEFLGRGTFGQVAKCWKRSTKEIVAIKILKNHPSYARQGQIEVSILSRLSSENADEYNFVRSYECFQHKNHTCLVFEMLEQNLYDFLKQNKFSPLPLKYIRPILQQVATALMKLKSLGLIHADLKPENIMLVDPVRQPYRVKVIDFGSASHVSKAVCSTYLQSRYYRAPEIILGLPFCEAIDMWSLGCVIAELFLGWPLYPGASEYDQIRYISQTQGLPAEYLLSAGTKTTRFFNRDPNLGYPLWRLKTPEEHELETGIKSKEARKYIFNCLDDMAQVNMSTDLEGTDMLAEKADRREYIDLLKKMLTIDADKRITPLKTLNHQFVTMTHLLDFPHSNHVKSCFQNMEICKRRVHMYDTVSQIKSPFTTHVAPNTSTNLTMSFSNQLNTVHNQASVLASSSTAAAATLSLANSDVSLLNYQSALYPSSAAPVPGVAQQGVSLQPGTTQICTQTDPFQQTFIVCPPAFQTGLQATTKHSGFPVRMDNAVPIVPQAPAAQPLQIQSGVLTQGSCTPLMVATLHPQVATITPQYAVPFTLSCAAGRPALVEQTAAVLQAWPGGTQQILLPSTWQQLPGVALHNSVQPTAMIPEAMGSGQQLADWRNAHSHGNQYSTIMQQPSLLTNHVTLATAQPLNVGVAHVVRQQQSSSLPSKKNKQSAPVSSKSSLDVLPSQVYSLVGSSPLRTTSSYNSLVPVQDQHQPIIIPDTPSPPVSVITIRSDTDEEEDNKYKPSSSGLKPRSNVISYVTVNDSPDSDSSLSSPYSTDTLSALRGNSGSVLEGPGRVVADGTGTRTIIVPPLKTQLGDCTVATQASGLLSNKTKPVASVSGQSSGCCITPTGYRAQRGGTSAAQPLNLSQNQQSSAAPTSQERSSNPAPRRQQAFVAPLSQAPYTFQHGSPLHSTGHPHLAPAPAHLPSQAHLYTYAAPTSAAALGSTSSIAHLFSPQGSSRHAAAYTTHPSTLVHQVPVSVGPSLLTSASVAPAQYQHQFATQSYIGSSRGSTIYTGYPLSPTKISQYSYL

[12] = biological target: T2, G protein-coupled receptor kinase 3 (Homo sapiens) (UniProt P35626); settings: Compound concentration 1000.0 nM
T2 sequence (whole entry): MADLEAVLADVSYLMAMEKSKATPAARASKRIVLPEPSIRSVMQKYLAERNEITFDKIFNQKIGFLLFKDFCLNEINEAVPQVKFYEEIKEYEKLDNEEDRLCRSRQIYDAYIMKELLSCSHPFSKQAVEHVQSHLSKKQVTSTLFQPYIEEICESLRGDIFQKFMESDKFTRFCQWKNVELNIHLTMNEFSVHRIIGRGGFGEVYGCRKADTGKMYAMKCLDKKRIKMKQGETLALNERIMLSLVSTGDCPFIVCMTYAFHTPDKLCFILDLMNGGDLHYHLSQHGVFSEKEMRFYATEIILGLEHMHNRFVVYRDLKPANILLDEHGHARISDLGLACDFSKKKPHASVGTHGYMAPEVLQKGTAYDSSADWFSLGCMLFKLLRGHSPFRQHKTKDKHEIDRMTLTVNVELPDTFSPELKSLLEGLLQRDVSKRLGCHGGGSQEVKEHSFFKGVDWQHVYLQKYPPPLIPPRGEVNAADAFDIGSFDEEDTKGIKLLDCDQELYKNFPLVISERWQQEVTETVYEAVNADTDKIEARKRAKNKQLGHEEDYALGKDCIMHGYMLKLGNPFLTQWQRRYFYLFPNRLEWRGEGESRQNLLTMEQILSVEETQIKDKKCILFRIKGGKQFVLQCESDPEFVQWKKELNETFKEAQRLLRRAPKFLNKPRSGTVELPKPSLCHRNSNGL

[13] = biological target: T3, Calcium/calmodulin-dependent protein kinase type IV (Homo sapiens) (UniProt Q16566); settings: Compound concentration 1000.0 nM
T3 sequence (whole entry): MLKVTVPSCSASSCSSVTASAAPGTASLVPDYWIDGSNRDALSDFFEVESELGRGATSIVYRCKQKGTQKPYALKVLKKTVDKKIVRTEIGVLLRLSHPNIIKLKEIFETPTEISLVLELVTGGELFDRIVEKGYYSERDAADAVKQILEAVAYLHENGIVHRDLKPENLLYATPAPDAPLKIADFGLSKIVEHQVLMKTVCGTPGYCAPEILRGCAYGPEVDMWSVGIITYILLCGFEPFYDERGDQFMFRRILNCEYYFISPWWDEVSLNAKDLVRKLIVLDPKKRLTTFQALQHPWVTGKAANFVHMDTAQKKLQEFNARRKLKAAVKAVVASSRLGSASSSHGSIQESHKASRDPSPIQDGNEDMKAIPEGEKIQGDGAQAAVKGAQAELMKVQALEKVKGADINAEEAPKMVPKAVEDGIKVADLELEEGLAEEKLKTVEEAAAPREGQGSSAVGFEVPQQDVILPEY

[14] = biological target: Cyclin-dependent kinase 19 (Homo sapiens) (UniProt Q9BWU1); settings: Compound concentration 1000.0 nM
Chain of Cyclin-dependent kinase 19 (Homo sapiens) (Q9BWU1 whole entry): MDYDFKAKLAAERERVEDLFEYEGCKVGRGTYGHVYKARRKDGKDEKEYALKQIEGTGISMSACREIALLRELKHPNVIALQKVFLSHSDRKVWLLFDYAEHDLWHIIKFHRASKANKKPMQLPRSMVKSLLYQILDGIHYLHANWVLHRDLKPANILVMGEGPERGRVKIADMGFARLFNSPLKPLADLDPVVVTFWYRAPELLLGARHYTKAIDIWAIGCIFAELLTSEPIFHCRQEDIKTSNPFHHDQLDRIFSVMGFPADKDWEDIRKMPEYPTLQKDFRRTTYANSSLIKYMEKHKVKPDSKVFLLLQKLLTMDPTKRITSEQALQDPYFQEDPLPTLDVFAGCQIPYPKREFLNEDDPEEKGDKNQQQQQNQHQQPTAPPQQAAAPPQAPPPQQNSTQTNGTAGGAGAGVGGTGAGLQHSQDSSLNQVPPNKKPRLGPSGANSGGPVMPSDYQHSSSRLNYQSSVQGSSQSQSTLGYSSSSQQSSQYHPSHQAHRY

[15] = biological target: Histamine H3 receptor (Homo sapiens) (UniProt Q9Y5N1); settings: Compound concentration 10.0 uM
Chain of Histamine H3 receptor (Homo sapiens) (Q9Y5N1 whole entry): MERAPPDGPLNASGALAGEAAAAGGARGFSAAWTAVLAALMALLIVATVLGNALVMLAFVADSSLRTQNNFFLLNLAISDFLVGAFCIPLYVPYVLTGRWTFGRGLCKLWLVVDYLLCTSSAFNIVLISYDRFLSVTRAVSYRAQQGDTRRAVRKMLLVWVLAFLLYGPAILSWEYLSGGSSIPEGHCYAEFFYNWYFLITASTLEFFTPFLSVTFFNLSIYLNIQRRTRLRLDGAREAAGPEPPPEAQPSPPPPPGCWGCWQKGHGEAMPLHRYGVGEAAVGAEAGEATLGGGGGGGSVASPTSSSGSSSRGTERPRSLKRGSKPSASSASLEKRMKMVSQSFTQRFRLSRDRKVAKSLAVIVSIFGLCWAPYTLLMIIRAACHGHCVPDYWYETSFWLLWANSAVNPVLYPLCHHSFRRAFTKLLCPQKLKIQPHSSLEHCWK

[16] = biological target: Phosphatidylinositol 3-kinase catalytic subunit type 3 (Homo sapiens) (UniProt Q8NEB9); settings: Compound concentration 1000.0 nM
Chain of Phosphatidylinositol 3-kinase catalytic subunit type 3 (Homo sapiens) (Q8NEB9 whole entry): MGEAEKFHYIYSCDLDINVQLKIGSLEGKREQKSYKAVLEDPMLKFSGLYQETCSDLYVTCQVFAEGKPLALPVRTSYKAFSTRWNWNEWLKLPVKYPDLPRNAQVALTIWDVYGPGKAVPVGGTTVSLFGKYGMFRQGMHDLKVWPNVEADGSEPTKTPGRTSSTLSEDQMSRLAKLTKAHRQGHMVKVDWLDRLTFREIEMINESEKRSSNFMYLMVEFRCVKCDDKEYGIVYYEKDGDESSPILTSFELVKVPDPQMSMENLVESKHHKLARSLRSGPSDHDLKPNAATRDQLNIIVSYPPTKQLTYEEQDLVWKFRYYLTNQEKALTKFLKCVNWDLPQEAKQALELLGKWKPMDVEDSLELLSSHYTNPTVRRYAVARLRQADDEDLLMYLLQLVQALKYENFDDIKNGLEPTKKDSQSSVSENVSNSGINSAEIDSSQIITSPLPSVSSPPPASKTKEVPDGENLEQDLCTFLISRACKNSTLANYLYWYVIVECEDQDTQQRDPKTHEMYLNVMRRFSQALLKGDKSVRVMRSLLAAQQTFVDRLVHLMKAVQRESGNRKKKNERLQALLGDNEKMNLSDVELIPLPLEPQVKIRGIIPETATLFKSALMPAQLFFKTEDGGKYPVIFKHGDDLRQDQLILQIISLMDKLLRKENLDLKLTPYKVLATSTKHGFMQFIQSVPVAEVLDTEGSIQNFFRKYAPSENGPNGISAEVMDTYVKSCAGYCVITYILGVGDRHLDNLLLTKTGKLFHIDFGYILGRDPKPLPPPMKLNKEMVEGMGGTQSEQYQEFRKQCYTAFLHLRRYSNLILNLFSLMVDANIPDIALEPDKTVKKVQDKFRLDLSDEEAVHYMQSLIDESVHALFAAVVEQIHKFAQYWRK

[17] = biological target: G protein-coupled receptor kinase 4 (Homo sapiens) (UniProt P32298); settings: Compound concentration 1000.0 nM

CN(C)C(=O)Cn1cc(-c2nc(C3(c4ccc(-c5cnc(N)nc5)cc4)CC3)no2)cn1 [BI 0153]
inactive: residual activity [1] 98% | residual activity [2] 91% | residual activity [3] 86% | residual activity [4] 93% | residual activity [5] 97% | residual activity [6] 76% | residual activity [7] 85% | inhibition [8] -1.63% | residual activity [9] 90% | residual activity [10] 100% | residual activity [11] 63% | residual activity [12] 69% | residual activity [13] 100% | residual activity [14] 93% | inhibition [15] 3.45% | residual activity [16] 96% | residual activity [17] 100%

CN(C)C(=O)Cn1cc(-c2nc([C@@](C)(c3ccc(-c4cnc(N)nc4)cc3)C3CC3)no2)cn1 [BI 665915]
inactive: residual activity [1] 96% | residual activity [2] 100% | residual activity [3] 100% | residual activity [4] 100% | residual activity [5] 93% | residual activity [6] 66% | residual activity [7] 85% | inhibition [8] 5.21% | residual activity [9] 100% | residual activity [10] 83% | residual activity [11] 96% | residual activity [12] 86% | residual activity [13] 83% | residual activity [14] 100% | inhibition [15] 11% | residual activity [16] 89% | residual activity [17] 86%
